Legend:
[1] = system: Treg suppressive function; conditions: literature (Valencia et al.; Zanin-Zhorov et al.); cited from earlier work
[2] = system: Dlgh1 recruitment to the IS in Tregs; assay: Dlgh1 recruitment to the immunological synapse on planar lipid bilayers, imaged by TIRFM; type: cell-based, human; conditions: Tregs from healthy donors, 50 ng/mL overnight
Method: Planar lipid bilayers containing anti-CD3 antibodies (5 μg/mL) and ICAM-1 (250 molecules per mm^2) were prepared in parallel-plate flow cells as described (Zanin-Zhorov et al., “Protein Kinase C-Theta Mediates Negative Feedback on Regulatory T Cell Function,” Science 328:372-376 (2010), which is hereby incorporated by reference in its entirety). The flow cell containing the bilayers was warmed up to 37° C.; cells were injected in 500 μL of Hepes-buffered saline containing 1% human serum albumin; and images were collected on a custom automated Nikon inverted fluorescence microscope.
All TIRF imaging was performed on the custom automated Nikon inverted fluorescence microscope using the 100×/1.45 N.A. TIRF objective from Nikon. […]
The pro-inflammatory mediator TNF-α inhibits suppressive activity and down-regulates Foxp3 in human Treg (Valencia et al., “TNF Downmodulates the Function of Human CD4+CD25hi T-Regulatory Cells,” Blood 108(1):253-261 (2006); Zanin-Zhorov et al., “Protein Kinase C-Theta Mediates Negative Feedback on Regulatory T Cell Function,” Science 328(5976):372-376 (2010), both of which are hereby incorporated by reference in their entirety). To investigate whether Dlgh1 recruitment to IS correlates with suppressive function of Treg, Treg was incubated with TNF-α overnight and then analyzed Dlgh1 recruitment to the IS as described above. […]

Foxp3 = conditions: literature (Valencia et al.; Zanin-Zhorov et al.); cited from earlier work
[3] = system: Treg suppressive function; assay: In vitro suppression assay (Tregs co-cultured with CD4+CD25- T cells at 1:3); type: cell-based, human; conditions: pre-treatment of Treg at 1 μM for 30 minutes, supernatants after 48 hours
Method: In Vitro Suppression Assays—CD4^+CD25^+ T cells were treated or not, washed, and added at a ratio of 1:3 ([…]) to CD4^+CD25^− T cells at final concentration of 2×10^6 per mL (cytokine secretion) or 2×10^5 per mL (proliferation). The cells were co-cultured on anti-CD3 mAb (5 μg/mL) pre-coated 24-well plates for 24-48 hours (cytokine secretion) or 96 hours (proliferation). Human TNF-α (210-TA) was purchased from R&D Systems and added to co-cultures where indicated. […] Cytokine secretion was determined by ELISA as described (Zanin-Zhorov et al., “Protein Kinase C-Theta Mediates Negative Feedback on Regulatory T Cell Function,” Science 328:372-376 (2010), which is hereby incorporated by reference in its entirety), using human IFN-γ Cytoset (Biosource) and IL-17 and -4 (Invitrogen). Proliferation was assessed by carboxyfluorescein diacetate succinimidyl ester (CFSE) dilution as described (Tran et al., “Analysis of Adhesion Molecules, Target Cells, and Role of IL-2 in Human FOXP3+ Regulatory T Cell Suppressor Function,” J. Immunol. 182:2929-2938 (2009), which is hereby incorporated by reference in its entirety).

Compound | suppressive activity of human Treg [1] | levels of Dlgh1 at IS in Tregs [2] | Foxp3 in human Treg (Foxp3) | ability of Treg to suppress IFN-γ secretion from CD4+CD25- T cells [3]
TNF-α | inhibits | significantly reduced | down-regulates | –
C[S+]([O-])c1ccc(-c2nc(-c3ccncc3)c(-c3ccc(F)cc3)[nH]2)cc1 (stereo not shown) [SB203580] | – | – | – | significantly down-regulated
